Numbers after ± are expanded uncertainties.
Experiment: activity coefficient (dimensionless); of the first substance listed, at infinite dilution; xn = mol fraction of the nth substance listed
Conditions: 101 kPa, Liquid, Chromatography, x1 = 0

| Structure (SMILES) | activity coefficient (318.15 K) | activity coefficient (328.15 K) | activity coefficient (338.15 K) | activity coefficient (348.15 K) | activity coefficient (358.15 K) | activity coefficient (368.15 K) | activity coefficient (298.15 K) | activity coefficient (308.15 K) |
| --- | --- | --- | --- | --- | --- | --- | --- | --- |
| CCCCCCCCCC [decane] + C[N+]1(CCCO)CCOCC1.O=S(=O)([N-]S(=O)(=O)C(F)(F)F)C(F)(F)F | 624 ± 43 | 543 ± 37 | 479 ± 33 | 419 ± 29 | 363 ± 25 | 328 ± 23 |  |  |
| Cc1ccc(C)cc1 [1,4-dimethylbenzene] + C[N+]1(CCCO)CCOCC1.O=S(=O)([N-]S(=O)(=O)C(F)(F)F)C(F)(F)F | 6.65 ± 0.45 | 6.7 ± 0.5 | 6.74 ± 0.46 | 6.78 ± 0.46 | 6.79 ± 0.46 | 6.84 ± 0.47 |  |  |
| CO [methanol] + C[N+]1(CCCO)CCOCC1.O=S(=O)([N-]S(=O)(=O)C(F)(F)F)C(F)(F)F | 0.945 ± 0.06 | 0.929 ± 0.059 | 0.915 ± 0.058 | 0.899 ± 0.057 | 0.884 ± 0.056 | 0.872 ± 0.056 |  |  |
| CC1CCCCC1 [methylcyclohexane] + C[N+]1(CCCO)CCOCC1.O=S(=O)([N-]S(=O)(=O)C(F)(F)F)C(F)(F)F | 102 ± 7 | 84.7 ± 5.8 | 73.3 ± 5 | 64.4 ± 4.4 | 55 ± 3.8 | 49.1 ± 3.4 |  |  |
| Cc1cccc(C)c1 [1,3-dimethylbenzene] + C[N+]1(CCCO)CCOCC1.O=S(=O)([N-]S(=O)(=O)C(F)(F)F)C(F)(F)F | 6.44 ± 0.44 | 6.55 ± 0.45 | 6.64 ± 0.45 | 6.73 ± 0.46 | 6.85 ± 0.47 | 6.92 ± 0.47 |  |  |
| C1CCCC1 [cyclopentane] + C[N+]1(CCCO)CCOCC1.O=S(=O)([N-]S(=O)(=O)C(F)(F)F)C(F)(F)F | 41 ± 2.8 | 34.7 ± 2.4 | 30.6 ± 2.1 | 27.2 ± 1.9 | 23.5 ± 1.6 | 21.4 ± 1.5 |  |  |
| C=COC(C)=O [vinyl acetate] + C[N+]1(CCCO)CCOCC1.O=S(=O)([N-]S(=O)(=O)C(F)(F)F)C(F)(F)F | 1.87 ± 0.13 | 1.91 ± 0.13 | 1.94 ± 0.13 | 1.98 ± 0.13 | 2 ± 0.14 | 2.03 ± 0.14 |  |  |
| C=CCCCC [hex-1-ene] + C[N+]1(CCCO)CCOCC1.O=S(=O)([N-]S(=O)(=O)C(F)(F)F)C(F)(F)F | 58.2 ± 4 | 51.7 ± 3.5 | 45.2 ± 3.1 | 40.5 ± 2.8 | 35.9 ± 2.5 |  |  |  |
| CCC(=O)CC [pentan-3-one] + C[N+]1(CCCO)CCOCC1.O=S(=O)([N-]S(=O)(=O)C(F)(F)F)C(F)(F)F | 1.28 ± 0.08 | 1.33 ± 0.09 | 1.4 ± 0.09 | 1.45 ± 0.1 | 1.52 ± 0.1 | 1.57 ± 0.1 |  |  |
| C1=CCCCC1 [cyclohexene] + C[N+]1(CCCO)CCOCC1.O=S(=O)([N-]S(=O)(=O)C(F)(F)F)C(F)(F)F | 23.7 ± 1.6 | 21.6 ± 1.5 | 20.2 ± 1.4 | 18.6 ± 1.3 | 17.1 ± 1.2 | 16.2 ± 1.1 |  |  |
| CCCCCCC [heptane] + C[N+]1(CCCO)CCOCC1.O=S(=O)([N-]S(=O)(=O)C(F)(F)F)C(F)(F)F | 223 ± 15 | 192 ± 13 | 162 ± 11 | 141 ± 10 | 116 ± 8 | 105 ± 7 | 345 ± 24 | 280 ± 19 |
| CC(C)CC(C)(C)C [2,2,4-trimethylpentane] + C[N+]1(CCCO)CCOCC1.O=S(=O)([N-]S(=O)(=O)C(F)(F)F)C(F)(F)F | 272 ± 19 | 226 ± 16 | 191 ± 13 | 165 ± 11 | 140 ± 10 | 125 ± 9 |  |  |
| CCCC=O [butanal] + C[N+]1(CCCO)CCOCC1.O=S(=O)([N-]S(=O)(=O)C(F)(F)F)C(F)(F)F | 1.37 ± 0.09 | 1.4 ± 0.09 | 1.43 ± 0.09 | 1.45 ± 0.1 | 1.48 ± 0.1 | 1.5 ± 0.1 |  |  |
| CCCCCC [hexane] + C[N+]1(CCCO)CCOCC1.O=S(=O)([N-]S(=O)(=O)C(F)(F)F)C(F)(F)F | 154 ± 11 | 122 ± 8 |  |  |  |  | 267 ± 18 | 201 ± 14 |
| CCO [ethanol] + C[N+]1(CCCO)CCOCC1.O=S(=O)([N-]S(=O)(=O)C(F)(F)F)C(F)(F)F | 1.4 ± 0.09 | 1.37 ± 0.09 | 1.34 ± 0.09 | 1.3 ± 0.08 | 1.28 ± 0.08 | 1.25 ± 0.08 |  |  |
| CCC(C)(C)OC [2-methoxy-2-methylbutane] + C[N+]1(CCCO)CCOCC1.O=S(=O)([N-]S(=O)(=O)C(F)(F)F)C(F)(F)F | 8.7 ± 0.59 | 8.75 ± 0.6 | 8.8 ± 0.6 | 8.86 ± 0.6 | 8.89 ± 0.61 | 8.93 ± 0.61 |  |  |
| C=C(C)c1ccccc1 [(1-methylethenyl)benzene] + C[N+]1(CCCO)CCOCC1.O=S(=O)([N-]S(=O)(=O)C(F)(F)F)C(F)(F)F | 5.97 ± 0.41 | 6.12 ± 0.42 | 6.28 ± 0.43 | 6.41 ± 0.44 | 6.55 ± 0.45 | 6.65 ± 0.45 |  |  |
| C1CCCCCC1 [cycloheptane] + C[N+]1(CCCO)CCOCC1.O=S(=O)([N-]S(=O)(=O)C(F)(F)F)C(F)(F)F | 82.8 ± 5.7 | 71 ± 4.9 | 62.6 ± 4.3 | 54.5 ± 3.7 | 47.2 ± 3.2 | 43 ± 2.9 |  |  |
| C#CCCCCCC [1-octyne] + C[N+]1(CCCO)CCOCC1.O=S(=O)([N-]S(=O)(=O)C(F)(F)F)C(F)(F)F | 33 ± 2.3 | 31.3 ± 2.1 | 29.6 ± 2 | 28 ± 1.9 | 26.7 ± 1.8 | 25.5 ± 1.7 |  |  |
| CCC[N+](=O)[O-] [1-nitropropane] + C[N+]1(CCCO)CCOCC1.O=S(=O)([N-]S(=O)(=O)C(F)(F)F)C(F)(F)F | 1.24 ± 0.08 | 1.26 ± 0.08 | 1.28 ± 0.08 | 1.3 ± 0.08 | 1.32 ± 0.09 | 1.34 ± 0.09 |  |  |
| C#CCCCC [1-hexyne] + C[N+]1(CCCO)CCOCC1.O=S(=O)([N-]S(=O)(=O)C(F)(F)F)C(F)(F)F | 12.5 ± 0.9 | 11.9 ± 0.8 | 11.6 ± 0.8 | 11.2 ± 0.8 | 10.7 ± 0.7 | 10.4 ± 0.7 |  |  |
| CCCC(=O)OC [methyl butanoate] + C[N+]1(CCCO)CCOCC1.O=S(=O)([N-]S(=O)(=O)C(F)(F)F)C(F)(F)F | 2.41 ± 0.16 | 2.48 ± 0.17 | 2.56 ± 0.17 | 2.62 ± 0.18 | 2.68 ± 0.18 | 2.75 ± 0.19 |  |  |
| CC(C)OC(C)C [diisopropyl ether] + C[N+]1(CCCO)CCOCC1.O=S(=O)([N-]S(=O)(=O)C(F)(F)F)C(F)(F)F | 17.3 ± 1.2 | 17.1 ± 1.2 | 16.9 ± 1.2 | 16.7 ± 1.1 | 16.5 ± 1.1 | 16.3 ± 1.1 |  |  |

— the NIST ThermoML archive (doi:10.1016/j.jct.2015.02.024)
